Test results as given in ChEMBL document CHEMBL1201862, “PubChem BioAssay data set” (2004).
The source made the active and inactive calls.

How the values were obtained:
[1] = target: Transitional endoplasmic reticulum ATPase (Homo sapiens, UniProt P55072, C522A); assay: C522A mutant p97 ATPase inhibitors, dose response, counter-screen for p97 inhibitor project, biochemical, luminescence (AID 1544)
Vero [2] = assay: cells; type: functional, cell-based; conditions: Chlorocebus sabaeus
[3] = A cytotoxicity screen of small molecule inhibitors of the PhoP region in Salmonella typhi identified in the primary screen. [Related pubchem assays: 1850, 1864, 1985 ]; type: functional
[4] = target: Transitional endoplasmic reticulum ATPase (Homo sapiens, UniProt P55072); assay: p97 ATPase inhibitors, dose response, biochemical (AID 1534)
Large T antigen = Large T antigen (Simian virus 40, UniProt P03070); type: functional, Betapolyomavirus macacae;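 also: Confirmatory-stage PubChem screen for compounds that inhibit SV40 T antigen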
[5] = target: Photoreceptor-specific nuclear receptor (Homo sapiens, UniProt Q9Y5X4); type: functional;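 also: potency for compounds that break the NR2E3 corepressor complex and count as activators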
[6] = target: T1, Intestinal-type alkaline phosphatase (Homo sapiens, UniProt P09923); assay: Dose Response confirmation of uHTS hits from a small molecule inhibitors of human intestinal alkaline phosphatase via a luminescent assay. [Related pubchem assays (depositor defined):AID2544, AID2574]; type: functional
[7] = target: T1, Intestinal-type alkaline phosphatase; assay: human IAP inhibitors, dose response, biochemical, luminescent, uHTS hits, set 2 (AID 488793); type: functional
[8] = target: T2, Alkaline phosphatase, tissue-nonspecific isozyme (Homo sapiens, UniProt P05186); assay: TNAP enzyme activators, dose response, selectivity assay for human IAP activator project, biochemical, TNAP isozyme, human IAP uHTS hits (AID 488886); type: functional;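 also: potency of compounds raising TNAP activity as a selectivity check on IAP activators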
T2 sequence (P05186 whole entry): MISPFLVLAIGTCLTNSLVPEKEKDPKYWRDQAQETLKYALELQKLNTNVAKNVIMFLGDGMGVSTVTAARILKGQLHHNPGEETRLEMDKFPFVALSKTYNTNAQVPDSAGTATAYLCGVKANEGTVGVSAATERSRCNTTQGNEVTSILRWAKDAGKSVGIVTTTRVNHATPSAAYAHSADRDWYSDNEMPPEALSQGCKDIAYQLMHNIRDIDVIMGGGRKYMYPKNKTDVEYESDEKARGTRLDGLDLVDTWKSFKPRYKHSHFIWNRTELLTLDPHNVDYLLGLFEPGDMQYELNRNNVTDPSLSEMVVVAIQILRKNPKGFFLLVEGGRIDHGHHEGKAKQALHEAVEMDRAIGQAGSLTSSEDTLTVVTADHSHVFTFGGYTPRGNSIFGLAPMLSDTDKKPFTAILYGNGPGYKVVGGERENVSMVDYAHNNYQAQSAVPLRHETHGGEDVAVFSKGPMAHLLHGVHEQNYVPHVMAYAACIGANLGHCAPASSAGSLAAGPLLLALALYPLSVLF

[9] = target: Intestinal-type alkaline phosphatase (Mus musculus, UniProt P24822); assay: PubChem AID 488874; type: functional
[10] = target: Peroxisome proliferator-activated receptor gamma/Nuclear receptor corepressor 2 (Homo sapiens, UniProt P37231+Q9Y618); type: functional
[11] = inhibitors of Bluetongue virus cytopathic effect, confirmation, arbovirus, BSR cells (AID 1250); type: functional;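 also: protection from viral cytopathic effect measured as cell viability by ATP luminescence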
[12] = target: T3, Calpain-2 catalytic subunit (Sus scrofa, UniProt P43367); assay: pig calpain II inhibitor potency, dose response, biochemical, fluorogenic peptide substrate (AID 1420); type: functional
T3 sequence (P43367 whole entry): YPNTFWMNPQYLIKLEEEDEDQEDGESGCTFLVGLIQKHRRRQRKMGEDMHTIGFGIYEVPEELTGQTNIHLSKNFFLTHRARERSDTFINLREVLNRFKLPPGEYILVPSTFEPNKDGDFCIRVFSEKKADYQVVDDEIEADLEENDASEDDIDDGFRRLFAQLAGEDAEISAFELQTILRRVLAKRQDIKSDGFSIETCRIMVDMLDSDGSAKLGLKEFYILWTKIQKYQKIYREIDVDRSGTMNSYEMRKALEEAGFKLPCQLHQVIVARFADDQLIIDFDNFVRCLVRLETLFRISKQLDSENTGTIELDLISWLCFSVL

Bcl-2-like protein 10 = target: T4, Bcl-2-like protein 10 (Homo sapiens, UniProt Q9HD36); assay: Biochemical TR3 FP assay of Bcl-B inhibitor potency, EC50 (AID 1243); type: functional
T4 sequence (Q9HD36 whole entry): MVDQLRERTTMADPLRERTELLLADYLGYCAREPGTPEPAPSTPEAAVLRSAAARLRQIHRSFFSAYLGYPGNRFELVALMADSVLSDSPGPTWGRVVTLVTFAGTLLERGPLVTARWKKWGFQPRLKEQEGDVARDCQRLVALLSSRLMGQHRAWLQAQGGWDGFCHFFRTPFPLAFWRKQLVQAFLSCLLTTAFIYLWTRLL

[13] = target: T5, Eukaryotic translation initiation factor 2-alpha kinase 3 (Homo sapiens, UniProt Q9NZJ5); assay: Counterscreen assay for PERK inhibitors: Dose response cell-based high throughput screening assay to measure inhibition of PERK at 6 hours. [Related pubchem assays: 1522, 1416 ]; type: functional
[14] = target: T5, Eukaryotic translation initiation factor 2-alpha kinase 3; assay: Dose response cell-based high-throughput screening assay to measure PERK inhibition. [Related pubchem assays: 1416 ]; type: functional
Vero [15] = assay: Vero E6 cell cytotoxicity, SAR follow-up, cytotoxicity control for West Nile virus antiviral project, synthesized analogs (AID 2244); type: functional; conditions: Chlorocebus sabaeus
Vero [16] = assay: cytotoxicity of synthesized analogs in Vero cells, SAR follow-up, cytotoxicity control for West Nile virus antiviral project, cell-based, set II (AID 2402); type: functional; conditions: Chlorocebus sabaeus
Vero [17] = assay: cytotoxicity of synthesized analogs in Vero 76, SAR follow-up, cytotoxicity control for West Nile virus antiviral project, Vero 76 cells (AID 2414); type: functional; conditions: Chlorocebus sabaeus

T1 sequence (P09923 whole entry): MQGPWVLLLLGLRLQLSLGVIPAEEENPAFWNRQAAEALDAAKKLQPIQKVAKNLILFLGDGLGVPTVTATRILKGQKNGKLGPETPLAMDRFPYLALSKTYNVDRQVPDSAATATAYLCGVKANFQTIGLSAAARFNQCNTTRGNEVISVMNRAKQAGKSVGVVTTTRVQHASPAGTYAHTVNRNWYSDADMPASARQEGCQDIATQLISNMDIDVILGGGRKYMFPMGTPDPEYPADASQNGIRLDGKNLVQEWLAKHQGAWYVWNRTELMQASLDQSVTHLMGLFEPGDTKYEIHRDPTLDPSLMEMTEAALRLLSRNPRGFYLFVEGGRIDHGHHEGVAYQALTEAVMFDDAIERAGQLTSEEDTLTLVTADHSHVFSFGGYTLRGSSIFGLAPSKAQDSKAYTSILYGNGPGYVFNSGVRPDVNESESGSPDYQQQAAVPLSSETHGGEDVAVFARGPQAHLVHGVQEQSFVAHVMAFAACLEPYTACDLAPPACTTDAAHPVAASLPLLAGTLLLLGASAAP
T5 sequence (Q9NZJ5 whole entry): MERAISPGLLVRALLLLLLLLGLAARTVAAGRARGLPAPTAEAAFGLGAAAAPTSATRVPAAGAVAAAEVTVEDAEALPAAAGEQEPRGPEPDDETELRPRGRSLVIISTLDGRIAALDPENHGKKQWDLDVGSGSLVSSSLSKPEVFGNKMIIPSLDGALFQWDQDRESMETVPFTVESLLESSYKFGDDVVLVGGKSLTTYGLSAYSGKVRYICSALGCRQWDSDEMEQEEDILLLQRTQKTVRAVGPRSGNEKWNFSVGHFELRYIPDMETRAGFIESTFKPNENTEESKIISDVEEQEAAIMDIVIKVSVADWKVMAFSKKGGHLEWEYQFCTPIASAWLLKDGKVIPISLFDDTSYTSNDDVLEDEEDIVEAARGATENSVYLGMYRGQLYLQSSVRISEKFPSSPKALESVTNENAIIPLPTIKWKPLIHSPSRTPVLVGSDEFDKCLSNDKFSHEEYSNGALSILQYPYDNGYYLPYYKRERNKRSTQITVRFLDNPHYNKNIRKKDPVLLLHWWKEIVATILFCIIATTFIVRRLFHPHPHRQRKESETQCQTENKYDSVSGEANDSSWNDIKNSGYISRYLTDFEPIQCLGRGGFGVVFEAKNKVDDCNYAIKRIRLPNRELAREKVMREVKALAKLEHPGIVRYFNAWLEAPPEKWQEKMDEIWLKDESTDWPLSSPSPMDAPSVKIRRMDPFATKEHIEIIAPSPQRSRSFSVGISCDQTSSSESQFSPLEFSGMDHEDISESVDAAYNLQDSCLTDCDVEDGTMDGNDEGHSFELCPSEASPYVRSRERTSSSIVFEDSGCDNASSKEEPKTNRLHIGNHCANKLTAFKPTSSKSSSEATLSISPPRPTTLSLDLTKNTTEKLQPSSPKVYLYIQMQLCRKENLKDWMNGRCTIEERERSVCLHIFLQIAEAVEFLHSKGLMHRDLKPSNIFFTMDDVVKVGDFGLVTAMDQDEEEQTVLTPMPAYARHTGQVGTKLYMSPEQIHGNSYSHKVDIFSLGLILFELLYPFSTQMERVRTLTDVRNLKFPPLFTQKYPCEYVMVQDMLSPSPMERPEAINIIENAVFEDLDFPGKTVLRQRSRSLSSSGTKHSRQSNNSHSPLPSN
Chain of Transitional endoplasmic reticulum ATPase (Homo sapiens, UniProt P55072) (P55072 whole entry): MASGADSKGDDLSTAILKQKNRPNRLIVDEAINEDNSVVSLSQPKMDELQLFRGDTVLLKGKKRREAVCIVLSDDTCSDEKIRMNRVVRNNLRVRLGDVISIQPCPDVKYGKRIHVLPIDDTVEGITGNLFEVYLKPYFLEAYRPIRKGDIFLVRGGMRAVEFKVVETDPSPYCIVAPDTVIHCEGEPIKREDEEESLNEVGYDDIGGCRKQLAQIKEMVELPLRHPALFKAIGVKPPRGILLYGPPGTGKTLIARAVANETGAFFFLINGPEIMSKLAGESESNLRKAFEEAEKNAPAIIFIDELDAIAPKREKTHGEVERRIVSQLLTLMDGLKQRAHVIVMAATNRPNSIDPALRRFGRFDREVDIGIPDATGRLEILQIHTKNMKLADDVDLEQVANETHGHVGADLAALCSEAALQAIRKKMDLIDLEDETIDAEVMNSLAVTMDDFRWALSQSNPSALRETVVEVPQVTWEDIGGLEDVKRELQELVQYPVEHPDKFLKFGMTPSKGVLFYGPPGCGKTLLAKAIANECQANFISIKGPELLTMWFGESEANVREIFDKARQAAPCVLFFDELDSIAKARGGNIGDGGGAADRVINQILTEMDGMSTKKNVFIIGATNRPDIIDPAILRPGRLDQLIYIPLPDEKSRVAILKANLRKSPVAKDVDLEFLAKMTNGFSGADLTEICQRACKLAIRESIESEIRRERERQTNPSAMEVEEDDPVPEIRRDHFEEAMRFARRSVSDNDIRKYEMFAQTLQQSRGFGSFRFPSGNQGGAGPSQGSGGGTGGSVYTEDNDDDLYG
Chain of Large T antigen (P03070 whole entry): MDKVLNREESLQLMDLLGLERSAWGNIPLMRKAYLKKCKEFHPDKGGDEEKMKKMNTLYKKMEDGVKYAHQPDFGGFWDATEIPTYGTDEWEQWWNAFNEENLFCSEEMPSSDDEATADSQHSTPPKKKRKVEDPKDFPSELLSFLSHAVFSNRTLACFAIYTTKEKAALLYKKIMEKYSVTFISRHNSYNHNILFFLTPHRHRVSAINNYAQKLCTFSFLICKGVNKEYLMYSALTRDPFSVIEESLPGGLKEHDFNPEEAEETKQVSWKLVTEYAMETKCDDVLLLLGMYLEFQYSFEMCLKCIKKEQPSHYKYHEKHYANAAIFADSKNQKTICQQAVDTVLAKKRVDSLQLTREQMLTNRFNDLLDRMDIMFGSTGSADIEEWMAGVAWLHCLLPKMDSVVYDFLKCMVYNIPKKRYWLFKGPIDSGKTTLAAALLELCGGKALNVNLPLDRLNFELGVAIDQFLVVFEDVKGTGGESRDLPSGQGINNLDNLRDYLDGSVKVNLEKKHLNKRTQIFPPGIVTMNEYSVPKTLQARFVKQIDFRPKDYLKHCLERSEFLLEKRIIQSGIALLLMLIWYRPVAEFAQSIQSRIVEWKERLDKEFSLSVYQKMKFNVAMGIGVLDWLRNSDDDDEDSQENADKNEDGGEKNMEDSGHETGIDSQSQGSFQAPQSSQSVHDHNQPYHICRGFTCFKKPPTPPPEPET
Chain of Photoreceptor-specific nuclear receptor (Q9Y5X4 whole entry): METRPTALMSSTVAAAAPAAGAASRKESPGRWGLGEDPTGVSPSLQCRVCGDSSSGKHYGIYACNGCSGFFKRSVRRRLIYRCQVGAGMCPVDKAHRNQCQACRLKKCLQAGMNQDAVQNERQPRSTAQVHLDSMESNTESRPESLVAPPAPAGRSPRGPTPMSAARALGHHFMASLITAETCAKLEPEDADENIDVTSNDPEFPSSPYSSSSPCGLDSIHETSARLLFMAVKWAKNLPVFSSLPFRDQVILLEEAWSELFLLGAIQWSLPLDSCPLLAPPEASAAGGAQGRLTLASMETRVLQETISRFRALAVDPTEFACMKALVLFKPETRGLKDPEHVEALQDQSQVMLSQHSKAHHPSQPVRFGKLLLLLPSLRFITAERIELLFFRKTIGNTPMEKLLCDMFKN
Chain of Transitional endoplasmic reticulum ATPase (Homo sapiens, UniProt P55072, C522A) (P55072 2-806 C522A limits assumed): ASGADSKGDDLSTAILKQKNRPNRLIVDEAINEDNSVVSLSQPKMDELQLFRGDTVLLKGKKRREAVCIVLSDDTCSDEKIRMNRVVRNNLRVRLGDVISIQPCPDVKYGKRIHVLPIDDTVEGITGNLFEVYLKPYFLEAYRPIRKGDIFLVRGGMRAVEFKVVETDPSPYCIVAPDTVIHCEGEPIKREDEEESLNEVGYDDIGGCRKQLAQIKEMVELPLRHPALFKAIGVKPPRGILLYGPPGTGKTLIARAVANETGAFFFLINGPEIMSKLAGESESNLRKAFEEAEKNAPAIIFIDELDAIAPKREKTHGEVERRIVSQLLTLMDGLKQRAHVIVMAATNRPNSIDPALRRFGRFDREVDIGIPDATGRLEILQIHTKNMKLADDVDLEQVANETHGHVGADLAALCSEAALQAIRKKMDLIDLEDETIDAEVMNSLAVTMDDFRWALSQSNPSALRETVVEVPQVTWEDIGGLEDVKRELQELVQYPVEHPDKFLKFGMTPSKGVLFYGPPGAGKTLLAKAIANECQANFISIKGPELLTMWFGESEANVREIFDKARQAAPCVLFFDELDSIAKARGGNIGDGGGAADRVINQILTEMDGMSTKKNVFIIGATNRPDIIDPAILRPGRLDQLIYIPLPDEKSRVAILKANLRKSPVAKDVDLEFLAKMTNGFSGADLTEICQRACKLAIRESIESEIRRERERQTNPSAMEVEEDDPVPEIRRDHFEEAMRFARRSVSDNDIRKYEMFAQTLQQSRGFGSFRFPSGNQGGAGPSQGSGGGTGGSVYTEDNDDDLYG
Chain of Intestinal-type alkaline phosphatase (Mus musculus, UniProt P24822) (P24822 whole entry): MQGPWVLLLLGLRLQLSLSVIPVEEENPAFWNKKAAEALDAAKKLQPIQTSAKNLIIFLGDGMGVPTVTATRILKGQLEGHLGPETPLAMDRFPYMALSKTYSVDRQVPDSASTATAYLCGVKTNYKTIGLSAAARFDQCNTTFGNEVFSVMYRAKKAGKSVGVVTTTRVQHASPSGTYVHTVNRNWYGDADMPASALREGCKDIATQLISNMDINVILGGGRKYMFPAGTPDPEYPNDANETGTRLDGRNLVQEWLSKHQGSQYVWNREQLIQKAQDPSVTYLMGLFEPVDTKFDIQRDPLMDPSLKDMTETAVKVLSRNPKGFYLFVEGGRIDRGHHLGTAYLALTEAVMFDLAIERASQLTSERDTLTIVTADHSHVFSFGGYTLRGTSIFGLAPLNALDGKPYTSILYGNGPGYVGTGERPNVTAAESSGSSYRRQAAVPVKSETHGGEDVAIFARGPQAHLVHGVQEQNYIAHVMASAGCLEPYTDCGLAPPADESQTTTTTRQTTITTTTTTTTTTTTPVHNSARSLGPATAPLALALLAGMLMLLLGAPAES

## [O-][n+]1onc2c1CCc1[nH]c(-c3ccccc3)nc1-2
[1]
  IC50: > 50 µM (not active)
Vero [2]
  IC50: 14 µM (active)
[3]
  EC50: > 50 µM (active)
[4]
  IC50: > 50 µM (not active)

## O=c1c2cc(O)c(O)cc2oc2cc(O)c(C3OC(CO)C(O)C(O)C3O)c(O)c12 (centres undefined)
Large T antigen
  IC50: 8.63 µM (active)
[5]
  IC50: > 39.8 µM (not active)
[6]
  IC50: 1.19 µM (active)
[7]
  IC50: 0.262 µM (active)
[8]
  EC50: > 100 µM (inactive)
[9]
  IC50: 14 µM (active)
[10]
  IC50: > 39.8 µM (not active)

## COc1ccc(OC)c(N(CC(=O)N2CCN(c3cc(Cl)ccc3C)CC2)S(C)(=O)=O)c1
[11]
  IC50: 38.9 µM (active)
[12]
  IC50: 11.7 µM (not active)

## Cc1ccc(C)n1-c1ccc(Br)cc1C(=O)O
Bcl-2-like protein 10
  EC50: 3.51 µM (active)

## COc1ccc(/C=C/C(=O)N[C@@H](C)C(=O)O)cc1
[13]
  EC50: > 55.7 µM (not active)
[14]
  EC50: > 55.7 µM (not active)

## O=c1c2cc(Br)ccc2nc2n1CC/C2=C/c1ccccc1
Vero [15]
  CC50: > 40 µM (active)
Vero [16]
  CC50: 33.3 µM (active)
Vero [17]
  CC50: > 66.6 µM (active)
